The assay concerns the target T1, human renin (Homo sapiens, UniProt P00797).
T1 sequence (P00797 67-406): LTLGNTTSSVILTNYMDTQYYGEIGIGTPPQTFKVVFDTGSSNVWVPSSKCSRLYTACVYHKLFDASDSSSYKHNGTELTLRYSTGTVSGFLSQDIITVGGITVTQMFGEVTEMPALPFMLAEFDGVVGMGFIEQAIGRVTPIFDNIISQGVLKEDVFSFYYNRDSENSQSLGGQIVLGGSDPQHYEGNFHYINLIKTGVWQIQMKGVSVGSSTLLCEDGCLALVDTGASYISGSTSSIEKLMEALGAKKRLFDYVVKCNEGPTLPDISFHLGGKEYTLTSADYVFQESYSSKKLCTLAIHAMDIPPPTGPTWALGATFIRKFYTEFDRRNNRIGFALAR
The assay is described as follows: Determination of renin IC50 by tGFP FRET assay. It counts as biochemical. The conditions noted are these: Human recombinant renin, tandem GFP substrate 650 nM, 60 min incubation with compound, pH 7.4, 11-point curve. In outline:
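Human recombinant renin (final 50.4 μIU) preincubated 60 min with compound (5% DMSO final) in 50 mM HEPES, 1 mM EDTA, 1% PEG 8000, 1 mM DTT, 0.1% BSA, pH 7.4, then tandem-GFP substrate added at 650 nM final. FRET fluorescence read; IC50 from 11-point curves spanning 100 μM–1 pM.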

Broadly, the IC50 is the point on the concentration scale where inhibition reaches its midpoint.

For `COC(=O)CCN1CCc2ccc(OC[C@H]3CNCC(=O)N3c3ccc(OCCCOCc4ccccc4OC)cc3)cc21` [Example 133, 3-[6-([2R]-1-{4-[3-(2-Methoxybenzyloxy)-propoxy]-phenyl}-6-oxo-piperazin-2-ylmethoxy)-2,3-dihydro-indol-1-yl]-propionic acid methyl ester], the IC50 was determined as 9.59 nM.

(Values after patent US20040214832A1, “Piperazine derivative renin inhibitors” (priority 2003, published 2004).)
